Test system: pentylenetetrazol (PTZ)-induced ictal brain activity
Experiment: Modulation of PTZ-induced seizures, BOLD fMRI
Format: in vivo, male Wistar rats
Conditions: for PTZ-induced brain activity: positive control compounds, all tested brain regions, high statistical significance
Procedure: Functional MRI (fMRI) was performed using a high-field preclinical MRI system in anesthetized male Wistar rats in order to determine the modulation of pentylenetetrazol (PTZ)-induced ictal brain activity by chronic treatment with test compound (TC). […] Vehicle and 3 mg/kg Alprazolam served as controls (see, Table 11) Seizures were induced with PTZ in each experimental group. A schematic of the study design can be seen in FIG. 6. Various physiological parameters were also measured throughout the experiment including body weight, CO2 levels, blood pH, and heart rate. […] Vehicle and 3 mg/kg Alprazolam served as controls (see, Table 12).

| Structure (SMILES) | Statistical significances of BOLD fMRI AUC, Vehicle vs. Alprazolam (brain regions) (FIG. 7A, 3 mg/kg+PTZ, two-way ANOVA) | PTZ-induced brain activity |
| --- | --- | --- |
| Cc1nnc2n1-c1ccc(Cl)cc1C(c1ccccc1)=NC2 [Alprazolam] | in all | effectively cancelled PTZ-induced brain activity |
| CN1C(=O)CN=C(c2ccccc2)c2cc(Cl)ccc21 [Diazepam] | – | effectively cancelled PTZ-induced brain activity |
